SMILES strings stand for the structures.

Assay [1] deals with 5-hydroxytryptamine receptor 2A (Homo sapiens, UniProt P28223). As to the kind of experiment: Displacement of [3H]-ketanserin from human 5-HT2A receptor by competitive radioligand binding assay. A general note: Displacement assays read how much labelled ligand stays bound in the presence of the test substance.
Assay [2] deals with 5-hydroxytryptamine receptor 2B (Homo sapiens, UniProt P41595). As to the kind of experiment: Displacement of [3H]-ketanserin from human 5-HT2B receptor by competitive radioligand binding assay.
Chain of 5-hydroxytryptamine receptor 2B (P41595 whole entry): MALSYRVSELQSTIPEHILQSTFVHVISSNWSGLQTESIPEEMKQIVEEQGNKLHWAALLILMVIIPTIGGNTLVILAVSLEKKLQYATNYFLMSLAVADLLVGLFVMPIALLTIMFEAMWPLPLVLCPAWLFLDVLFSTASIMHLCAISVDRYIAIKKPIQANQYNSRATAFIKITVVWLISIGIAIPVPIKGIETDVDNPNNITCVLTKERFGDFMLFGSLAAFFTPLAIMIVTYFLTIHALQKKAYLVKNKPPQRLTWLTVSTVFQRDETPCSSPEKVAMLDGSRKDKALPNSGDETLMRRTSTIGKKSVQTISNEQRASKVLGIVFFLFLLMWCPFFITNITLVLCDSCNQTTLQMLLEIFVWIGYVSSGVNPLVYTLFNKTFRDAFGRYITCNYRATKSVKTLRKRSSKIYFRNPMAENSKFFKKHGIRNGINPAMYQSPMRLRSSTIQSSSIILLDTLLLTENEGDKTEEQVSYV
The target of assay [3] is T1, 5-hydroxytryptamine receptor 2C (Homo sapiens, UniProt P28335).
T1 sequence (P28335 whole entry): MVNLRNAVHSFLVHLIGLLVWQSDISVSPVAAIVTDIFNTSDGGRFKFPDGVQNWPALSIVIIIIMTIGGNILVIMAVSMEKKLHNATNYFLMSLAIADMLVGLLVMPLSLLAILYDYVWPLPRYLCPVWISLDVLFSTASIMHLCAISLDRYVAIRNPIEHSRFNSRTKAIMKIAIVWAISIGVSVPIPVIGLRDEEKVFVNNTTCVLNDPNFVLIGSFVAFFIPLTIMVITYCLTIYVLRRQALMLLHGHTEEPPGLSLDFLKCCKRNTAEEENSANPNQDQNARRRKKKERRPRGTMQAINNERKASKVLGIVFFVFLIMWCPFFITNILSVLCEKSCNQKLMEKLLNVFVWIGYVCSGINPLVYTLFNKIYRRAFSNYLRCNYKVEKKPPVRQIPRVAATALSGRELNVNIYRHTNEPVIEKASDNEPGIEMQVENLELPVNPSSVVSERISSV
As to the kind of experiment: Displacement of [3H]-ketanserin from human 5-HT2C receptor by competitive radioligand binding assay.

Assay [4] has as its target 5-hydroxytryptamine receptor 7 (Rattus norvegicus, UniProt P32305). As to the kind of experiment: Displacement of [3H]-CT from rat 5-HT7 receptor expressed in HEK293 cells by competitive radioligand binding assay. In kind it is cell-based.
Assay [5] addresses T2, Adrenergic receptor alpha-1 (Rattus norvegicus, UniProt P15823+P23944+P43140).
T2 sequence (P15823 whole entry): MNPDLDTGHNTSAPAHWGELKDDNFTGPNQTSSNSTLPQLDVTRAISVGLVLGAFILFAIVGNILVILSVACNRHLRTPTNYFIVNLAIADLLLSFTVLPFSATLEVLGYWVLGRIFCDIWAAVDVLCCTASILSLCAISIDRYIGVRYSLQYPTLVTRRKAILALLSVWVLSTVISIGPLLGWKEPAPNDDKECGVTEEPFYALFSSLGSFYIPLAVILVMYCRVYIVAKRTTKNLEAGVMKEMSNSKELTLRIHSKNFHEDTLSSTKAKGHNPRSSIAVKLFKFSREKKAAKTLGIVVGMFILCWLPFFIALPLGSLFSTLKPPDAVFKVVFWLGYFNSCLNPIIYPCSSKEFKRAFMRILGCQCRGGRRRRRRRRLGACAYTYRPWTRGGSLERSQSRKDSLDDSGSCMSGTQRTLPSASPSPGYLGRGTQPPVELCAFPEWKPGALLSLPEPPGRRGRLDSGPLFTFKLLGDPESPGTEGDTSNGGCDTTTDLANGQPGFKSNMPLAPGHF
T2 sequence (P23944 whole entry): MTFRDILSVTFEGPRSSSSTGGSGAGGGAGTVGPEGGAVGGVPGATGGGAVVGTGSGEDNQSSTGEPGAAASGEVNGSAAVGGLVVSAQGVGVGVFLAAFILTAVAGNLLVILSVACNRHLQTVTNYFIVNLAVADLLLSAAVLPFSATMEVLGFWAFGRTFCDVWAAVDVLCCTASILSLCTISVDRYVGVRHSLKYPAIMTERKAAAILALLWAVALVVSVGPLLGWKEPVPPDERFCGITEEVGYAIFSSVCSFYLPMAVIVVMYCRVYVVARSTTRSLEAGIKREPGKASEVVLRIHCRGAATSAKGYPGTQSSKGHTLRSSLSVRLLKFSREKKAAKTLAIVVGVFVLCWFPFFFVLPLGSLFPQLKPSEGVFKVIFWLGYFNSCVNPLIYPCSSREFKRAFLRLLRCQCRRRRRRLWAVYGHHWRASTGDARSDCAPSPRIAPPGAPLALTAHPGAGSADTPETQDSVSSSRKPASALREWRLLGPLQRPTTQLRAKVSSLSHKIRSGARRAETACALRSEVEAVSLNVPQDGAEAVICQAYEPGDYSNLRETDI
T2 sequence (P43140 whole entry): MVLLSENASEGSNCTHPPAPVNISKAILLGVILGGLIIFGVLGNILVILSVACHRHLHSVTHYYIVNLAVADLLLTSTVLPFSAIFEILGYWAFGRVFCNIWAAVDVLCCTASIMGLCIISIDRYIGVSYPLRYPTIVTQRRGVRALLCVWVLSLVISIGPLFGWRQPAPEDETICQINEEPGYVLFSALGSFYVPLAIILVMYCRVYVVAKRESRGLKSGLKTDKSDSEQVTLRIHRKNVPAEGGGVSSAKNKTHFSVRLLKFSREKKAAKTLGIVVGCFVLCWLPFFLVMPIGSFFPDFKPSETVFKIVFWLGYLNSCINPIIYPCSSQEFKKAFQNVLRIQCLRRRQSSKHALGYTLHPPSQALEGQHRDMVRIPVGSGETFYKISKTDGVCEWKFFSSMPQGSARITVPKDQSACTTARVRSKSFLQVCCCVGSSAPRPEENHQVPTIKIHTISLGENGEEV
As to the kind of experiment: Displacement of […] from alpha1 adrenergic receptor in rat cortex membrane incubated for 60 mins by competitive radioligand binding assay. It is filed as cell membranes.

Chain of 5-hydroxytryptamine receptor 7 (P32305 whole entry): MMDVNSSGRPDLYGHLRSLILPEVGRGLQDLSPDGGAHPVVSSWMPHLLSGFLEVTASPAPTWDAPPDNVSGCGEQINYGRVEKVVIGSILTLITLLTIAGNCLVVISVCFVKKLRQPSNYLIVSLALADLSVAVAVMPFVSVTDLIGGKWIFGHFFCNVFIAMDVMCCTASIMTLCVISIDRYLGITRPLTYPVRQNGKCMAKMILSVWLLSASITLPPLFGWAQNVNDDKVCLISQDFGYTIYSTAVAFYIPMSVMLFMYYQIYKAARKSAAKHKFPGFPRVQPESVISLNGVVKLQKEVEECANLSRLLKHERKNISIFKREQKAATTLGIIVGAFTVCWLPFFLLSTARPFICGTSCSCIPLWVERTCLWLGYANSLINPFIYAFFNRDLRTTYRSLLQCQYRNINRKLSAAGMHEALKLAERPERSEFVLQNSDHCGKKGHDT
Chain of 5-hydroxytryptamine receptor 2A (P28223 whole entry): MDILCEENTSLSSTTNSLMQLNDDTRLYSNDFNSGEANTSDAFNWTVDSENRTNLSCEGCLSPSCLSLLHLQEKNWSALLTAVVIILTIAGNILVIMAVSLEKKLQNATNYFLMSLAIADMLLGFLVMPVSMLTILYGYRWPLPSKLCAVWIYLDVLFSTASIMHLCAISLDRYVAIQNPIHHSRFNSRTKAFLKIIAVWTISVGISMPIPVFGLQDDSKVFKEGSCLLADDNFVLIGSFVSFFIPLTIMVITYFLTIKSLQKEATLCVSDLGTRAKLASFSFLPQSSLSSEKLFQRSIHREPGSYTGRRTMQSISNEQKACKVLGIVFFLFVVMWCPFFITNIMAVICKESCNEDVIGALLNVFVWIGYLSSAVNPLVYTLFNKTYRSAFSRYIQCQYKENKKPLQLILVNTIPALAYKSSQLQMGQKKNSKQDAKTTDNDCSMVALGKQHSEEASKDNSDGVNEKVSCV

For `CC(C)n1nc2c(c1-c1ccc(Cl)c(Cl)c1)CCNCC2`, the Ki (usually a dissociation constant, usually derived from enzyme kinetics or from competition with a known ligand) in assay [1] is 0.039 µM; in assay [2], 0.031 µM; in assay [3] it was 0.91 µM; in assay [4], 4 µM.

On to `Fc1ccc(-c2c3c(nn2C2CCC2)CCNCC3)cc1`, for which the Ki came to 0.001 µM in assay [1], 0.004 µM in assay [2], 0.045 µM in assay [3] and 0.22 µM in assay [5].

Consider `CC(C)n1nc2c(c1-c1ccccc1)CCNCC2`, for which the Ki was 0.024 µM in assay [1]; 0.019 µM in assay [2]; 0.13 µM in assay [3]; 0.028 µM in assay [4]; 0.53 µM in assay [5].

Turning to `Fc1ccc(-c2c3c(nn2C2CC2)CCNCC3)cc1`, the Ki in assay [1] was 0.006 µM.

Turning to `c1ccc(-c2c3c(nn2C2CCC2)CCNCC3)cc1`, the Ki in assay [1] is 0.003 µM; in assay [2] it was 0.003 µM; in assay [5], 0.5 µM.

Turning to `CC(C)n1nc2c(c1-c1ccc(Cl)cc1Cl)CCNCC2`, the Ki in assay [1] came to 0.015 µM; in assay [2], 0.043 µM; in assay [3], 0.22 µM; in assay [4] it was 0.4 µM.

Consider `CC(C)n1nc2c(c1-c1ccc(C#N)cc1)CCNCC2`, for which the Ki was 0.005 µM in assay [1], 0.39 µM in assay [3], 0.09 µM in assay [4] and 0.24 µM in assay [5].

For `Cc1ccc(-c2c3c(nn2C(C)C)CCNCC3)cc1`, the Ki in assay [1] was 0.001 µM; in assay [2], 0.002 µM; in assay [5], 0.004 µM.

As to `CC(C)(C)n1nc2c(c1-c1ccccc1)CCNCC2`, the Ki in assay [1] was 0.019 µM; in assay [2] it was 0.043 µM; in assay [3], 0.085 µM.

For `c1ccc(-c2c3c(nn2C2CC2)CCNCC3)cc1`, the Ki came to 0.03 µM in assay [1]; 0.02 µM in assay [2]; 0.03 µM in assay [3]; 0.02 µM in assay [4]; 0.6 µM in assay [5].

On to `c1ccc(-c2c3c(nn2-c2ccccc2)CCNCC3)cc1`, for which the Ki came out at 0.6 µM in assay [1]; 0.015 µM in assay [2]; 9 µM in assay [3]; 0.15 µM in assay [4]; 10 µM in assay [5].

Regarding `CC(C)n1nc2c(c1-c1ccc(C(F)(F)F)cc1)CCNCC2`, the Ki was 0.002 µM in assay [1], 0.005 µM in assay [2], 0.015 µM in assay [4] and 0.13 µM in assay [5].

In assay [1], `Clc1ccc(-c2nn(Cc3ccccc3)c3c2CCNCC3)cc1` [JNJ-18038683 FREE BASE] came in with a Ki of 0.1 µM.

For the molecule `CCn1nc2c(c1-c1ccccc1)CCNCC2`, the Ki in assay [1] was found to be 0.06 µM; in assay [2], 0.075 µM; in assay [3], 1.2 µM; in assay [4], 0.14 µM.

For the molecule `CC(C)n1nc2c(c1-c1ccc(OC(F)(F)F)cc1)CCNCC2`, the Ki in assay [1] was determined as 0.04 µM; in assay [2], 0.02 µM; in assay [3], 0.99 µM; in assay [4], 5 µM.

Regarding `COc1ccc(-c2c3c(nn2C(C)C)CCNCC3)cc1`, the Ki in assay [1] worked out at 0.003 µM; in assay [2], 0.001 µM; in assay [4] it was 0.018 µM.

In the case of `CNc1ccc(-c2c3c(nn2C(C)C)CCNCC3)cc1`, the Ki came to 0.003 µM in assay [1]; 0.024 µM in assay [2]; 0.21 µM in assay [3]; 0.04 µM in assay [4]; 0.016 µM in assay [5].

As for `CC(C)n1nc2c(c1-c1ccc(Cl)cc1)CCNCC2`, the Ki was determined as 0.001 µM in assay [1], 0.001 µM in assay [2], 0.009 µM in assay [4] and 0.02 µM in assay [5].

The values are drawn from ChEMBL document CHEMBL4673280, “Discovery and SAR studies of 2-alkyl-3-phenyl-2,4,5,6,7,8-hexahydropyrazolo[3,4-d]azepines as 5-HT inhibitors leading to the identification of a clinical candidate” (Bioorg Med Chem Lett, 2021).
